Earlier results in US20030236237A1, “Method of treating symptoms of hormonal variation, including hot flashes, using tachykinin receptor antagonist” (priority 2000, published 2003).
Like-named read-outs stand apart in the source and are kept apart here.

Columns and labels:
hot flashes [1] = conditions: transdermal; tamoxifen-treated women
hot flashes [2] = conditions: low dose oral; men and women; short term study
[3] = tested on: neurokinin B gene expression in the hypothalamic arcuate nucleus (ArN); conditions: ovariectomized primate treated with estrogen
[4] = tested on: neurokinin B gene expression in the hypothalamic arcuate nucleus (ArN); conditions: ovariectomized rat treated with estrogen
hot flash = conditions: humans

Compound: Clc1cccc(Cl)c1N=C1NCCN1 [clonidine]
- frequency and severity of hot flashes (hot flashes [1]): only a moderate effect

Compound: CC(=O)O[C@]1(C(C)=O)CC[C@H]2[C@@H]3C=C(C)C4=CC(=O)CC[C@]4(C)[C@H]3CC[C@@]21C [megestrol acetate]
- frequency of hot flashes (hot flashes [2]): shown to reduce the frequency of hot flashes

Compound: estrogen
- ArN changes (increased NKB gene expression) [3]: completely prevents
- ArN changes (increased NKB gene expression) [4]: completely prevents

Compound: substance P [substance-P]
- clinical hot flash after systemic injection (hot flash): results in a clinical hot flash
